In ChEMBL document CHEMBL3885881, “DrugMatrix”:

Species: Rattus norvegicus
Experiment: DrugMatrix - Regimen: Daily Repeat
Type: toxicity, organism-based, Sprague-Dawley
Set-up: regimen Daily Repeat, gender Male, age 6-8 weeks
Conditions: in vivo, po, route oral GAVAGE, […]; for BASOPHIL / EOSINOPHIL / ERYTHROCYTE COUNT / HEMATOCRIT / HEMOGLOBIN / LEUKOCYTE COUNT / LYMPHOCYTE / MEAN CORPUSCULAR HEMOGLOBIN / MEAN CORPUSCULAR HEMOGLOBIN CONCENTRATION / MEAN CORPUSCULAR VOLUME / MONOCYTE / NEUTROPHIL / PLATELET COUNT: tissue Blood; for ALANINE AMINOTRANSFERASE / ALBUMIN / ALKALINE PHOSPHATASE / ASPARTATE AMINOTRANSFERASE / BLOOD UREA NITROGEN / CARBON DIOXIDE / CHLORIDE / CHOLESTEROL / CREATINE PHOSPHOKINASE / CREATININE / GLUCOSE / LACTATE DEHYDROGENASE / LIPASE / PHOSPHORUS / POTASSIUM / SODIUM / TOTAL BILIRUBIN / TOTAL PROTEIN / URIC ACID: tissue Plasma
[1] = 100 mg/kg, 72 h, dose level Low, time 3 day
[2] = 100 mg/kg, 120 h, dose level Low, time 5 day
[3] = 1200 mg/kg, 72 h, dose level High, time 3 day
[4] = 1200 mg/kg, 120 h, dose level High, time 5 day

For `Cc1c(C)c2c(c(C)c1O)CCC(C)(COc1ccc(CC3SC(=O)NC3=O)cc1)O2` (stereo not drawn) [TROGLITAZONE], the BASOPHIL [1] was 0%, the EOSINOPHIL [1] was 1% and the “ERYTHROCYTE COUNT” value [1] was 6.97 x10E6/uL. For the same compound, the HEMATOCRIT [1] was 42.83%, the HEMOGLOBIN [1] was 14.33 G/DL and the “LEUKOCYTE COUNT” value [1] was 7.7 x10E3/uL. The LYMPHOCYTE [1] was 77.67%, the “MEAN CORPUSCULAR HEMOGLOBIN” value [1] was 20.57 pg and the “MEAN CORPUSCULAR HEMOGLOBIN CONCENTRATION” value [1] was 33.5 G/DL. The “MEAN CORPUSCULAR VOLUME” value [1] was 61.4 fL, the MONOCYTE [1] was 3% and the NEUTROPHIL [1] was 18.33%. For the same compound, the “PLATELET COUNT” value [1] was 1143 x10E3/uL, the “ALANINE AMINOTRANSFERASE” value [1] was 57.67 u/L and the ALBUMIN [1] was 4.33 G/DL. The “ALKALINE PHOSPHATASE” value [1] was 396.67 u/L, the “ASPARTATE AMINOTRANSFERASE” value [1] was 112.67 u/L and the “BLOOD UREA NITROGEN” value [1] was 14.67 mg/dL. The “CARBON DIOXIDE” value [1] was 24.67 mmol/L, the CHLORIDE [1] was 103.33 MEQ/L and the CHOLESTEROL [1] was 74.67 mg/dL. The “CREATINE PHOSPHOKINASE” value [1] was 585.67 u/L, the CREATININE [1] was 0.3 mg/dL and the GLUCOSE [1] was 141 mg/dL. The “LACTATE DEHYDROGENASE” value [1] was 938.33 u/L, the LIPASE [1] was 10 u/L and the PHOSPHORUS [1] was 8.83 mg/dL. For the same compound, the POTASSIUM [1] was 5.6 MEQ/L, the SODIUM [1] was 144.33 MEQ/L and the “TOTAL BILIRUBIN” value [1] was 0.1 mg/dL. The “TOTAL PROTEIN” value [1] was 5.83 G/DL, the “URIC ACID” value [1] was 1.2 mg/dL and the BASOPHIL [2] was 0.33%. For the same compound, the EOSINOPHIL [2] was 0.67%, the “ERYTHROCYTE COUNT” value [2] was 7.13 x10E6/uL and the HEMATOCRIT [2] was 43.8%. For the same compound, the HEMOGLOBIN [2] was 14.4 G/DL, the “LEUKOCYTE COUNT” value [2] was 13.53 x10E3/uL and the LYMPHOCYTE [2] was 82.33%. The “MEAN CORPUSCULAR HEMOGLOBIN” value [2] was 20.2 pg, the “MEAN CORPUSCULAR HEMOGLOBIN CONCENTRATION” value [2] was 32.87 G/DL and the “MEAN CORPUSCULAR VOLUME” value [2] was 61.5 fL. The MONOCYTE [2] was 1.67%, the NEUTROPHIL [2] was 15.67% and the “PLATELET COUNT” value [2] was 873.33 x10E3/uL. The “ALANINE AMINOTRANSFERASE” value [2] was 66.67 u/L, the ALBUMIN [2] was 4.27 G/DL and the “ALKALINE PHOSPHATASE” value [2] was 446.67 u/L. The “ASPARTATE AMINOTRANSFERASE” value [2] was 84.33 u/L, the “BLOOD UREA NITROGEN” value [2] was 15 mg/dL and the “CARBON DIOXIDE” value [2] was 23.67 mmol/L. The CHLORIDE [2] was 99.67 MEQ/L, the CHOLESTEROL [2] was 63.67 mg/dL and the “CREATINE PHOSPHOKINASE” value [2] was 419.67 u/L. The CREATININE [2] was 0.3 mg/dL, the GLUCOSE [2] was 149 mg/dL and the “LACTATE DEHYDROGENASE” value [2] was 313.33 u/L. The LIPASE [2] was 9.33 u/L, the PHOSPHORUS [2] was 9.73 mg/dL and the POTASSIUM [2] was 5.57 MEQ/L. For the same compound, the SODIUM [2] was 139.67 MEQ/L, the “TOTAL BILIRUBIN” value [2] was 0.0667 mg/dL and the “TOTAL PROTEIN” value [2] was 5.8 G/DL. The “URIC ACID” value [2] was 0.87 mg/dL, the BASOPHIL [3] was 0% and the EOSINOPHIL [3] was 1%. The “ERYTHROCYTE COUNT” value [3] was 7.21 x10E6/uL, the HEMATOCRIT [3] was 43.6% and the HEMOGLOBIN [3] was 14.63 G/DL. The “LEUKOCYTE COUNT” value [3] was 6.47 x10E3/uL, the LYMPHOCYTE [3] was 79.33% and the “MEAN CORPUSCULAR HEMOGLOBIN” value [3] was 20.33 pg. The “MEAN CORPUSCULAR HEMOGLOBIN CONCENTRATION” value [3] was 33.6 G/DL, the “MEAN CORPUSCULAR VOLUME” value [3] was 60.5 fL and the MONOCYTE [3] was 2.67%. For the same compound, the NEUTROPHIL [3] was 16.67%, the “PLATELET COUNT” value [3] was 1107 x10E3/uL and the “ALANINE AMINOTRANSFERASE” value [3] was 85.33 u/L. The ALBUMIN [3] was 4.53 G/DL, the “ALKALINE PHOSPHATASE” value [3] was 481.33 u/L and the “ASPARTATE AMINOTRANSFERASE” value [3] was 92.33 u/L. For the same compound, the “BLOOD UREA NITROGEN” value [3] was 14.67 mg/dL, the “CARBON DIOXIDE” value [3] was 23 mmol/L and the CHLORIDE [3] was 104 MEQ/L. For the same compound, the CHOLESTEROL [3] was 65.33 mg/dL, the “CREATINE PHOSPHOKINASE” value [3] was 471 u/L and the CREATININE [3] was 0.3 mg/dL. For the same compound, the GLUCOSE [3] was 140.33 mg/dL, the “LACTATE DEHYDROGENASE” value [3] was 332.33 u/L and the LIPASE [3] was 9.33 u/L. For the same compound, the PHOSPHORUS [3] was 8.43 mg/dL, the POTASSIUM [3] was 5.33 MEQ/L and the SODIUM [3] was 146 MEQ/L. The “TOTAL BILIRUBIN” value [3] was 0.1 mg/dL, the “TOTAL PROTEIN” value [3] was 6 G/DL and the “URIC ACID” value [3] was 0.97 mg/dL. For the same compound, the BASOPHIL [4] was 0%, the EOSINOPHIL [4] was 1% and the “ERYTHROCYTE COUNT” value [4] was 6.94 x10E6/uL. The HEMATOCRIT [4] was 42.1%, the HEMOGLOBIN [4] was 13.63 G/DL and the “LEUKOCYTE COUNT” value [4] was 9.2 x10E3/uL. For the same compound, the LYMPHOCYTE [4] was 81%, the “MEAN CORPUSCULAR HEMOGLOBIN” value [4] was 19.63 pg and the “MEAN CORPUSCULAR HEMOGLOBIN CONCENTRATION” value [4] was 32.4 G/DL. For the same compound, the “MEAN CORPUSCULAR VOLUME” value [4] was 60.63 fL, the MONOCYTE [4] was 2.33% and the NEUTROPHIL [4] was 16%. For the same compound, the “PLATELET COUNT” value [4] was 801.33 x10E3/uL, the “ALANINE AMINOTRANSFERASE” value [4] was 58 u/L and the ALBUMIN [4] was 4.3 G/DL. The “ALKALINE PHOSPHATASE” value [4] was 406.67 u/L, the “ASPARTATE AMINOTRANSFERASE” value [4] was 77.33 u/L and the “BLOOD UREA NITROGEN” value [4] was 16 mg/dL. The “CARBON DIOXIDE” value [4] was 25 mmol/L, the CHLORIDE [4] was 99.33 MEQ/L and the CHOLESTEROL [4] was 64.33 mg/dL. The “CREATINE PHOSPHOKINASE” value [4] was 451.67 u/L, the CREATININE [4] was 0.3 mg/dL and the GLUCOSE [4] was 149 mg/dL. For the same compound, the “LACTATE DEHYDROGENASE” value [4] was 118.67 u/L, the LIPASE [4] was 8.67 u/L and the PHOSPHORUS [4] was 9.07 mg/dL. For the same compound, the POTASSIUM [4] was 5.67 MEQ/L, the SODIUM [4] was 138 MEQ/L and the “TOTAL BILIRUBIN” value [4] was 0.1 mg/dL. For the same compound, the “TOTAL PROTEIN” value [4] was 5.77 G/DL and the “URIC ACID” value [4] was 1.1 mg/dL.
